Laboratory results: patent publication US20260250325A1, “Antiviral Polypeptide Membrane Fusion Inhibitor, and Preparation Method and Application Thereof” (priority 2025, published 2026)
Where a SMILES comes first, the peptide text is derived from it. The star is where a group is joined. Succinyl(4-O-cholesteryl) = CC(C)CCC[C@@H](C)[C@H]1CC[C@H]2[C@@H]3CC=C4C[C@@H](OC(=O)CCC(=O)*)CC[C@]4(C)[C@H]3CC[C@]12C

Test system: RSV A2 virus strain
Assay: Mouse RSV A2 challenge protection, lung viral titer by plaque method
Format: in vivo, BALB/c mice
Conditions: for Mean (PFU/g lung): BALB/c mice, tracheal nebulization 1 mg/kg QD for 5 days, lung collected 2 h after final administration on Day 4; for effect on viral titer in lung tissue (in words): mice, tracheal nebulization once daily for 5 days
Description: Female BALB/c mice were from Shanghai Yishang Biotechnology Co., Ltd. HEp- 2 were from the ATCC, with a catalog number CCL-23. The cells were cultured in a DMEM medium solution in which 10% (v/v) fetal bovine serum and 1% penicillin and streptomycin were added. The RSV A2 virus strain was from the ATCC, with a catalog number VR-1540.
Eight-week-old female BALB/c mice were grouped based on body weight (n=6). All animals were intranasally challenged with RSV on Day 0 at a challenge dosage of 1×10^6 pfu (20 μL) per animal. Administration began 1 h after Day 0 challenge; the polypeptide sample, positive control, and solvent control were administered via tracheal nebulization once daily for 5 consecutive days (see Table 3 below for administration dosage and administration frequency). Lung tissue was collected from all animals 2 h after the final administration on Day 4; left lung tissue was rapidly frozen in a virus protection solution with a 10-fold volume and stored below −70° C.; and a viral titer was detected by using a plaque method.
For analysis, the lung RSV A2 virus was determined by performing a tissue homogenate viral load plaque method. In short, on the day prior to sample detection, the HEp-2 cells were inoculated into a 12-well plate (spreading density being 0.3×10^6 cells/mL, with 1000 μL of cell suspension per well) according to a standard HEp-2 cell culture operation procedure. On the day of incubation, the supernatant was taken from the tissue sample that was homogenized using a tissue homogenizer (maintaining a low-temperature environment), and the supernatant was taken after centrifugation. The tissue homogenate sample was diluted with serum-free DMEM, and inoculated into a 12-well plate at a final volume of 400 μL. After 2 h of incubation, the homogenate supernatant was discarded, and 1.5 mL of a covering layer (cell culture medium containing 1% soft agar) was added to each well and cultured in the incubator for approximately 72 h. The covering layer was discarded, the cells were fixed, blocking was performed by using a blocking solution, dyeing was performed with HRP-RSVG, development and air drying were terminated with pure water. Colored spots on the well plate were counted by using a fluorescent (enzyme-linked) immunoassay spot analyzer, and the viral titer was expressed as a plaque-forming unit per gram of tissue (PFU/g). The viral titer was calculated as an arithmetic mean±standard error of all animals in a group.
One hour after RSV A2 challenge in mice, compounds 13, 14, 17, 19, 20, 21, 26, 27, 28, and 40 were administered via tracheal nebulization once daily for 5 consecutive days; and 2 h after the final administration, lung tissue was collected from all groups for viral plaque detection, and results were shown in Table 3.

Compound	Mean (PFU/g lung)	effect on viral titer in lung tissue (in words)
CC[C@H](C)[C@H](NC(=O)[C@H](CCCCN)NC(=O)[C@H](CCCCN)NC(=O)[C@H](CC(C)C)NC(=O)[C@H](CO)NC(=O)[C@H](CCC(=O)O)NC(=O)[C@H](CCC(=O)O)NC(=O)[C@@H](NC(=O)[C@H](CCCCN)NC(=O)[C@H](CCCCN)NC(=O)[C@H](CC(N)=O)NC(=O)[C@@H](NC(=O)[C@H](CCC(=O)O)NC(=O)[C@H](CCC(=O)O)NC(=O)[C@@H](NC(=O)[C@H](CCCCN)NC(=O)[C@H](CCCCN)NC(=O)[C@H](CC(=O)O)NC(=O)[C@H](Cc1ccccc1)NC(=O)[C@H](CCC(=O)O)NC(=O)[C@H](CC(=O)O)NC(=O)[C@H](Cc1c[nH]c2ccccc12)NC(C)=O)[C@@H](C)CC)C(C)C)[C@@H](C)CC)C(=O)N[C@@H](CCC(=O)O)C(=O)N[C@@H](CCC(=O)O)C(=O)N[C@@H](CO)C(=O)N[C@@H](CC(=O)O)C(=O)N[C@@H](CCCCN)C(=O)N[C@@H](CCCCN)C(=O)N[C@@H](CC(C)C)C(=O)N[C@@H](CCC(=O)O)C(=O)N[C@@H](C)C(=O)N[C@@H](C)C(=O)N[C@@H](C)C(=O)N[C@@H](CCCCN)C(=O)N[C@@H](CCCCNC(=O)CCC(=O)O[C@H]1CC[C@@]2(C)C(=CC[C@H]3[C@@H]4CC[C@H]([C@H](C)CCCC(C)C)[C@@]4(C)CC[C@@H]32)C1)C(N)=O [Compound 13] (Ac-WDEFDKKIEEVNKKIEESLKKIEESDKKLEAAAKK(Succinyl(4-O-cholesteryl))-NH2)	5380	significantly reduce the viral titer in lung tissue
CC[C@H](C)[C@H](NC(=O)[C@H](CCCCN)NC(=O)[C@H](CCCCN)NC(=O)[C@H](CC(C)C)NC(=O)[C@H](CO)NC(=O)[C@H](CCC(=O)O)NC(=O)[C@H](CCC(=O)O)NC(=O)[C@@H](NC(=O)[C@H](CCCCN)NC(=O)[C@H](CCCCN)NC(=O)[C@H](CC(N)=O)NC(=O)[C@@H](NC(=O)[C@H](CCC(=O)O)NC(=O)[C@H](CCC(=O)O)NC(=O)[C@@H](NC(=O)[C@H](CCCCN)NC(=O)[C@H](CCCCN)NC(=O)[C@H](CC(=O)O)NC(=O)[C@H](Cc1ccccc1)NC(=O)[C@H](CCC(=O)O)NC(=O)[C@H](CC(=O)O)NC(=O)[C@H](CO)NC(C)=O)[C@@H](C)CC)C(C)C)[C@@H](C)CC)C(=O)N[C@@H](CCC(=O)O)C(=O)N[C@@H](CCC(=O)O)C(=O)N[C@@H](CO)C(=O)N[C@@H](CC(=O)O)C(=O)N[C@@H](CCCCN)C(=O)N[C@@H](CCCCN)C(=O)N[C@@H](CC(C)C)C(=O)NCC(=O)N[C@@H](CO)C(=O)NCC(=O)N[C@@H](CO)C(=O)NCC(=O)N[C@@H](CCCCNC(=O)CCC(=O)O[C@H]1CC[C@@]2(C)C(=CC[C@H]3[C@@H]4CC[C@H]([C@H](C)CCCC(C)C)[C@@]4(C)CC[C@@H]32)C1)C(N)=O [Compound 20] (Ac-SDEFDKKIEEVNKKIEESLKKIEESDKKLGSGSGK(Succinyl(4-O-cholesteryl))-NH2)	8928	significantly reduce the viral titer in lung tissue
CC[C@H](C)[C@H](NC(=O)[C@H](CO)NC(=O)[C@H](C)NC(=O)[C@H](CC(=O)O)NC(=O)[C@H](Cc1ccccc1)NC(=O)[C@H](CCC(=O)O)NC(=O)[C@H](CC(=O)O)NC(C)=O)C(=O)N[C@@H](CO)C(=O)N[C@@H](CCC(N)=O)C(=O)N[C@H](C(=O)N[C@@H](CC(N)=O)C(=O)N[C@@H](CCC(=O)O)C(=O)N[C@@H](CCCCN)C(=O)N[C@H](C(=O)N[C@@H](CC(N)=O)C(=O)N[C@@H](CCC(N)=O)C(=O)N[C@@H](CO)C(=O)N[C@@H](CC(C)C)C(=O)N[C@@H](CCC(=O)O)C(=O)N[C@@H](CCC(=O)O)C(=O)N[C@H](C(=O)N[C@@H](CCCNC(=N)N)C(=O)N[C@@H](CCCCN)C(=O)N[C@@H](CO)C(=O)N[C@@H](CC(=O)O)C(=O)N[C@@H](CCC(=O)O)C(=O)N[C@@H](CC(C)C)C(=O)N[C@@H](CC(C)C)C(=O)N[C@@H](Cc1c[nH]cn1)C(=O)N[C@@H](CC(N)=O)C(=O)N[C@@H](CCC(=O)O)C(=O)N[C@@H](C)C(=O)N[C@@H](C)C(=O)N[C@@H](C)C(=O)N[C@@H](CCCCN)C(=O)N[C@@H](CCCCNC(=O)CCC(=O)O[C@H]1CC[C@@]2(C)C(=CC[C@H]3[C@@H]4CC[C@H]([C@H](C)CCCC(C)C)[C@@]4(C)CC[C@@H]32)C1)C(N)=O)[C@@H](C)CC)[C@@H](C)CC)C(C)C [Compound 28] (Ac-DEFDASISQVNEKINQSLEEIRKSDELLHNEAAAKK(Succinyl(4-O-cholesteryl))-NH2)	8425	significantly reduce the viral titer in lung tissue
CC[C@H](C)[C@H](NC(=O)[C@H](CCCCN)NC(=O)[C@H](CCCCN)NC(=O)[C@H](CC(C)C)NC(=O)[C@H](CO)NC(=O)[C@H](CCC(=O)O)NC(=O)[C@H](CCC(=O)O)NC(=O)[C@@H](NC(=O)[C@H](CCCCN)NC(=O)[C@H](CCCCN)NC(=O)[C@H](CC(N)=O)NC(=O)[C@@H](NC(=O)[C@H](CCC(=O)O)NC(=O)[C@H](CCC(=O)O)NC(=O)[C@@H](NC(=O)[C@H](CCCCN)NC(=O)[C@H](CCCCN)NC(=O)[C@H](CC(=O)O)NC(=O)[C@H](Cc1ccccc1)NC(=O)[C@H](CCC(=O)O)NC(=O)[C@H](CC(=O)O)NC(=O)[C@H](Cc1c[nH]c2ccccc12)NC(C)=O)[C@@H](C)CC)C(C)C)[C@@H](C)CC)C(=O)N[C@@H](CCC(=O)O)C(=O)N[C@@H](CCC(=O)O)C(=O)N[C@@H](CO)C(=O)N[C@@H](CC(=O)O)C(=O)N[C@@H](CCCCN)C(=O)N[C@@H](CCCCN)C(=O)N[C@@H](CC(C)C)C(=O)N[C@@H](CCC(=O)O)C(=O)N[C@@H](CCC(=O)O)C(=O)N[C@H](C(=O)N[C@@H](CC(N)=O)C(=O)N[C@@H](C)C(=O)N[C@@H](CCC(=O)O)C(=O)N[C@@H](C)C(=O)N[C@@H](C)C(=O)N[C@@H](C)C(=O)N[C@@H](CCCCN)C(=O)N[C@@H](CCCCNC(=O)CCC(=O)O[C@H]1CC[C@@]2(C)C(=CC[C@H]3[C@@H]4CC[C@H]([C@H](C)CCCC(C)C)[C@@]4(C)CC[C@@H]32)C1)C(N)=O)C(C)C [Compound 40] (Ac-WDEFDKKIEEVNKKIEESLKKIEESDKKLEEVNAEAAAKK(Succinyl(4-O-cholesteryl))-NH2)	5678	significantly reduce the viral titer in lung tissue
Ac-FDEEISQVNEKINQSLAFIRKSDELLHNVNAGKSTTEAAAKK(Succinyl(4-O-cholesteryl))-NH2 [Compound 26]	5015	significantly reduce the viral titer in lung tissue
Ac-WDEFDASISQVNEKINQSLEEIRKSDELLHNVNAGLGSGSGK(Succinyl(4-O-cholesteryl))-NH2 [Compound 27]	9458	significantly reduce the viral titer in lung tissue
